Results from US9757477B2, “Imaging brown adipose tissue with curcumin derivatives” (The General Hospital Corporation, priority 2013, dated 2017).
Several values for one entry are separate records, joined by “and”; a condition that tells them apart may be missing. Equal values may be shown once. Entries after “also recorded” stand apart in the source; their conditions may differ.

Columns and labels:
interscapular BAT [1] = assay: Top-down whole-organism NIR fluorescence screening of dyes (ROI1/ROI2 contrast); assay type: in vivo, nude mice; details: for visible contrast around the interscapular BAT area: in vivo NIR images; for Ratio No 1 (ROI1/ROI2 average fluorescence intensity) / Ratio No 2 (ROI1/ROI2 average fluorescence intensity) / Ratio No 3 (ROI1/ROI2 average fluorescence intensity) / Ratio AVERAGE (mean ratio ROI1/ROI2): nude mice, one hour post-injection; for Ratio No 1 (ROI1/ROI2 average fluorescence intensity) / Ratio No 2 (ROI1/ROI2 average fluorescence intensity) / Ratio No 3 (ROI1/ROI2 average fluorescence intensity): 10 μg/mouse i.v.; for Ratio No 1 (ROI1/ROI2 average fluorescence intensity): first excitation/emission filter pair; for Ratio No 2 (ROI1/ROI2 average fluorescence intensity): second excitation/emission filter pair; for Ratio No 3 (ROI1/ROI2 average fluorescence intensity): third excitation/emission filter pair; for Ratio AVERAGE (mean ratio ROI1/ROI2): i.v., mean of three filter pairs, hit threshold >1.10
Experimental: 38 fluorescent dyes from commercial resources and from the inventors' laboratory were screened. Dyes with excitation range of 550-745 nm, emission range of 600-840 nm, and with molecular weight of less than 700 Da (except Cy5.5) (representative dyes are listed in FIG. 1d and the full list is shown in Table 2). Their hydrophobicities were not determined. The library was screened by intravenous tail injection of compounds into nude mice (10μg/mouse). Each dye was imaged with three optimized excitation/emission filter-pairs, and images at one hour after i.v. injection were acquired.
Top-down whole organism screening was performed as follows. Nude mice (nu/nu COX7) were purchased from Massachusetts General Hospital and Balb/c mice were from Jackson Laboratory. All animal experimental procedures were approved by the Institutional Animal Care and Use Committee (IACUC) at Massachusetts General Hospital. Dye stock solutions were prepared in DMSO. The final injection solution (0.1 mg/ml) was freshly prepared in a mixed solution of 20% DMSO, 20% Cremophor EL and 60% saline. Nude mice (n=5) were injected with a 100 μL dye solution via tail vein. For each imaging session, mice were anesthetized with a mixture of oxygen and isoflurane for 5 minutes, and then positioned into the imaging chamber of IVIS® Spectrum in vivo pre-clinical imaging system. Images were acquired at one-hour post-injection using sequence imaging with three excitation/emission filter pairs for each dye.
Hits selection was performed as follows. Hits from cell- or protein-based screening are usually selected by setting certain threshold. In the case of the top-down imaging screening, two methods were used (threshold and visible contrast) to select hits. First, three images obtained with three excitation/emission pairs were selected for each dye. These ex/em pairs were selected from the closest excitation and emission wavelengths of the tested dyes. For instance, 605/660 nm, 605/680 nm, 640/680 nm were selected for image acquisition of Nile blue (625/660 nm). The quantification of contrast for each image was calculated as a ratio of two ROIs (region of interest). ROI1 reflected the average signal from interscapular BAT and ROI2 was the average signal of the area that included BAT and white adipose tissue (WAT) around the interscapular site (FIG. 1b, left). The averaged fluorescent signal of ROI was used instead of the total signal, because the total signal depends on the area of ROI, whereas the averaged signal reflects the density of signal. The ratio of ROI1/ROI2 could reflect the signal/noise ratio of the tested probe, and could also reflect the selectivity of the probe for BAT over WAT. For each dye, three ROI1/ROI2 ratios obtained with the three filter pairs were calculated. The mean of the ratios was used as the threshold. If the mean ratio was >1.10, the dye was selected as a potential positive hit (FIG. 1c). Since the contrast of a dye in the top-down screening is in the visible range, the visible contrast around the interscapular BAT area was also tested for the hits with the mean ratio of >1.10. If both mean ratio and the visible contrast were positive, then the hit was subjected to re-testing procedure to validate its reliability as described below.
Although CRANAD-2 and CRANAD-3 were able to provide certain contrast for BAT in vivo, their excitation and emission wavelengths were still shorter than required for an ideal NIR imaging probe (both excitation and emission >640 nm). […] To seek better probes, a sub-library was synthesized based on the structures of the lead probes CRANAD-2 and -3. CRANAD-6, -19, -22, -24, -26, -32 and -43 were synthesized and tested (images and chemical structures, excitation and emission spectra are shown in FIG. 9 a-e). […] However, the ROI1/ROI2 ratio of CRANAD-22 was not improved (FIG. 9c).

interscapular BAT [2] = assay: Re-testing of hits with stepwise dissection and NIR imaging; assay type: in vivo, mice
Experimental: Like protein/cell-based screening, hit re-testing experiments were conducted to validate the reliability of this approach. CRANAD-2, -3, LDS 722 and Rhodamine 640 were subjected to re-testing by repeating the above imaging procedure. Images were acquired one hour after probe injection.
Next, stepwise dissection and imaging were performed to track the source of the fluorescence contrast at the interscapular site. Skin and the thin WAT layer that covers BAT were first removed, and then BAT was dissected, and NIR images were captured at each step. […] The signal contribution from BAT (R(BAT)) was roughly estimated using the ratio of fluorescence signals acquired after (F(BAT)) and before (F(intact)) the first step dissection of skin and WAT.

[3] = Excitation and emission wavelengths of BAT imaging agents; assay type: physicochemical
Experimental: In some embodiments, the methods include irradiating the mammal with light of the appropriate wavelength to excite the BAT imaging agent, and detecting emissions therefrom.
Fluorescent dyes were purchased from Exciton Inc. (Dayton, Ohio) and Invitrogen. The reagents used for the synthesis were purchased from Aldrich and used without further purification. Column chromatography was performed on silica gel (SiliCycle Inc., 60 Å, […]) slurry packed into glass columns. 1H, 13C NMR spectra were recorded at 500 MHz and 125 MHz respectively, and reported in ppm downfield from tetramethylsilane. Fluorescence studies were carried out using a F-4500 Fluorescence Spectrophotometer (Hitachi). Mass spectra were obtained at Harvard University, Department of Chemistry Instrumentation Facility. Microscopic images were acquired with Nikon Eclipse 50i microscope. In vivo NIR imaging was performed using the IVIS® Spectrum animal imaging system (Caliper LifeSciences, Perkin Elmer, Hopkinton, Mass.), and data analysis was conducted using LivingImage® 4.2.1 software.

[4] = system: undifferentiated 3T3-L1 cells; assay: Probe uptake in undifferentiated 3T3-L1 cells (IVIS imaging); assay type: cell-based
Experimental: (§1) To investigate the facilitated diffusion of CRANAD-2, the time courses of CRANAD-2 uptake in 3T3-L1 cells were compared before and after differentiation. Two-photon imaging for 3T3-L1 cells was performed as follows. Fibroblast 3T3-L1 cells were differentiated following the protocol provided by Zenbio, Inc. (protocol No. ZBM0009.02). Ten microliters of CRANAD-2 (250 μM in DMSO) was added to the differentiated cells (1.0 ml). Cells were imaged after 10 min of incubation. A 940 nm laser was first used to capture an image for CRANAD-2 in 570-620 nm channel (Prairie Two-photon microscope, Middleton, Wis.). Next, the laser was tuned to 750 nm to capture autofluorescence of the cells to outline cell morphology.
(§2) IVIS imaging of 3T3-L1 cells with CRANAD-2 was performed as follows. To a 6-well plate seeded with preadipocytes or differentiated adipocytes, a 10 μL solution of CRANAD-2 (250 μM in DMSO) was added. The plate was subjected to imaging using IVIS imaging system with Ex=605 nm, Em=660 nm before and after addition of CRANAD-2. For triglyceride competition, the same protocol for two-photon imaging was used. The images were acquired at 20 min after addition of CRANAD-2. Studies were performed in triplicate.
(§3) The uptake of CRANAD-29 in 3T3-L1 cells before and after differentiation was compared. IVIS imaging of 3T3-L1 cells with CRANAD-29 was performed as follows. To a 6-well plate seeded with preadipocytes or differentiated adipocytes, a 10 μL solution of CRANAD-29 (250 μM in DMSO) was added. The plate was subjected to imaging using IVIS imaging system with Ex=640 nm, Em=700 nm before and after addition of CRANAD-29. For triglyceride competition and Hexarelin inhibition, the similar protocol for CRANAD-2 imaging was used. The final concentration of hexarelin was 12.5 μM, and the images were acquired at 3 hours after addition of CRANAD-29 and triglyceride/Hexarelin. Studies were performed in triplicate.

[5] = system: differentiated 3T3-L1 cells; assay: Probe uptake in differentiated 3T3-L1 cells (IVIS and two-photon imaging, competition); assay type: cell-based
Experimental: as §1
For triglyceride competition, stock solutions of CRANAD-2 (250 μM) and triglyceride (5 mM) in DMSO were prepared. Before imaging, 10 μl of the stock solution was added to the cells.
as §2, §3

inguinal sWAT = assay: Monitoring browning of subcutaneous WAT after CL 316,243 treatment; assay type: in vivo, C57BL6 mice; details: CL 316,243 1.0 mg/kg i.p. for 12 days
Experimental: (§4) Two-month old C57BL6 mice (n=5) were i.p. injected CL 316,243 (100 uL, 1.0 mg/kg) for 12 days, and the control mice (n=5) were i.p. injected with saline. On the 13th day, both groups were imaged after i.v. injection of CRANAD-29. Images were acquired at 1-, 2-, 4-hours after the probe injection. After the last imaging session, inguinal sWAT were dissected after scarification of the mice, and the dissected sWAT tissue was subjected to qPCR for UCP-1 expression and H&E staining

UCP-1 = assay: qPCR for UCP-1 expression in dissected sWAT; assay type: in vivo, C57BL6 mice; details: CL 316,243 1.0 mg/kg i.p. for 12 days
Experimental: as §4

interscapular BAT [6] = assay: Time course and dose optimization of probe signal in BAT area after i.v. injection; assay type: in vivo, mice; details: mouse, in vivo, iv
Experimental: (§5) Next the time course of CRANAD-2 and CRANAD-3 accumulation in BAT area was investigated. […] Similarly, the signal of CRANAD-3 reached the uptake peak around one hour, and then gradually washed out (FIG. 8c-d). Accumulation of CRANAD-2 and -3 in BAT was further confirmed with ex vivo histology of the dissected BAT slices, performed as follows. The dissected BAT was fixed with 4% formalin at 4° C. overnight, and then embedded into OCT. BAT tissue was cut into 7 micron thickness slices, washed with PBS buffer, and co-stained with DAPI (Vectra Shield, Vector Lab, Burlingame, Calif.). Images were acquired with fast exposure to capture the dye signal in the oil droplets. To outline cell membrane cell autofluorescence was captured with long exposure after image of the dye signal from oil droplets was already acquired. To further validate the capacity of CRANAD-29 for BAT labeling, ex vivo histological microscopic imaging with CRANAD-29 was conducted. […] Gold standard H&E staining also provided similar images (FIG. 10a). […] The injection dose of CRANAD-29 was optimized, and the fluorescence signal reached its plateau at 0.4 mg/kg (FIG. 11). In the following studies, 0.1 mg/kg dose was used.

brown adipose cells = assay: Ex vivo histology of dissected BAT slices; parameters: species or system mice; details: fluorescence microscopy
Experimental: as §5

[7] = system: BAT cells induced from wild-type brown preadipocytes; assay: In vitro staining of BMPs-induced BAT cells (live cell confocal); assay type: cell-based; details: live cell confocal images

SMILES | visible contrast around the interscapular BAT area (interscapular BAT [1]) | selectivity for BAT (over WAT) (interscapular BAT [2]; stepwise dissection) | Emission λ [3] [nm] | Excitation λ [3] [nm] | Ratio No 1 (ROI1/ROI2 average fluorescence intensity) (interscapular BAT [1]) | Ratio No 2 (ROI1/ROI2 average fluorescence intensity) (interscapular BAT [1]) | Ratio No 3 (ROI1/ROI2 average fluorescence intensity) (interscapular BAT [1]) | Ratio AVERAGE (mean ratio ROI1/ROI2) (interscapular BAT [1]) | further results
CN(C)c1ccc(/C=C/C=C/C2=CC(/C=C/C=C/c3ccc(N(C)C)cc3)=[O+][B-](F)(F)O2)cc1 [CRANAD-43] | best contrast | not significantly increased; also recorded: poor selectivity | 700 | 640 |  |  |  |  | ROI1/ROI2 ratio compared with lead probe (interscapular BAT [1]; sub-library probes, compared with CRANAD-2): higher
CC[N+](CC)=c1ccc2nc3c(cc(N)c4ccccc43)oc-2c1 [Nile Blue] |  |  |  |  | 1.00E+00 | 9.89E−01 | 9.62E−01 | 9.84E−01 | uptake in undifferentiated cells over the time course [4]: rapidly reached the plateau; uptake in differentiated cells over the time course ([5]; differentiated 3T3-L1 cells): rapidly reached the plateau; uptake with triglyceride competition ([5]; triglyceride added with probe, two-photon microscopy and IVIS): no significant decrease in uptake
C[C@H](Cc1ccc2c(c1)OC(C(=O)[O-])(C(=O)[O-])O2)NC[C@H](O)c1cccc(Cl)c1.[Na+].[Na+] [CL 316,243] |  |  |  |  |  |  |  |  | H&E staining of sWAT slice of treated mice (inguinal sWAT): cells with multilocular lipid droplets; UCP-1 mRNA level in sWAT, treated mice vs control group (UCP-1): 7.9 fold
F[B-]1(F)OC(/C=C/c2c(-c3ccccc3)[nH]c3ccccc23)=CC(/C=C/c2c(-c3ccccc3)[nH]c3ccccc23)=[O+]1 [CRANAD-26] |  |  | 637 | 587 |  |  |  |  | 
CCN(CC)c1ccc(/C=C/C2=CC(/C=C/c3ccc(N(CC)CC)nc3)=[O+][B-](F)(F)O2)cn1 [CRANAD-3] | best contrast and clear triangular contour | low | 660 | 570 | 1.34E+00 | 1.33E+00 | 1.31E+00 | 1.32 and 1.32E+00 | R(BAT), signal contribution from BAT, F(BAT)/F(intact) (interscapular BAT [2]; fluorescence after vs before dissection of skin and WAT, roughly estimated): 0.51; contrast among the re-tested dyes (interscapular BAT [2]; images one hour after probe injection): highest contrast; fluorescence signal from BAT (before vs after BAT removal) (interscapular BAT [2]; stepwise dissection): able to label BAT; time of uptake peak in BAT area (interscapular BAT [6]): around one; labeling in ex vivo histology of BAT slices (brown adipose cells): labeled oil droplets in brown adipose cells; staining of oil droplets in BAT cells [7]: able to clearly label oil droplets in BAT cells
CN(C)c1ccc(/C=C/C2=CC(/C=C/c3ccc(N(C)C)c4ccccc34)=[O+][B-](F)(F)O2)c2ccccc12 [CRANAD-6] |  |  | 750 | 620 |  |  |  |  | 
